Laboratory results: patent publication US7169762B2, “Substance having physiological property, method for producing the same and uses thereof” (Amino Up Chemical Co., Ltd., priority 2001, dated 2007)

Tests used:
TNF-α and IFN-γ = assay: cytokine concentrations in supernatant of LPS-stimulated macrophage (PEC) culture after oral administration to mice; format: in vivo, mouse; details: 1 g/kg oral for 1 week, C57/BL6 mice; PEC macrophages + LPS 100 ng/ml, 4 hours
Procedure: (§1) The physiological activity assays were performed by forcibly administering 1 g/kg of a sample to 6-week age male C57/BL6 mice for 1 week by oral route. Spleen cells and peritoneal exudate cells (PEC) were collected after sacrificing the animals. They were cultivated and assayed TNF-α, IFN-γ, and IL-2.
PEC (peritoneal exudate cells) collected from mouse abdominal cavity with physiological saline were centrifuged, (1,000 rpm, 10 minutes) to collect cells, which were used as macrophages. To the macrophages LPS (lipopoly saccharide) was added at a final concentration of 100 ng/ml and the cells were cultivated. After 4 hours, TNF-α, IFN-γ, and IL-2 in the culture supernatant were assayed.
(§2) For both a) and b) above, a kit for assaying cytokine (Wako Pure Chemical Industries, Ltd.) was used.

TNF-α, IFN-γ and IL-2 = assay: cytokine concentrations in supernatant of ConA-stimulated spleen cell culture after oral administration to mice; format: in vivo, mouse; details: 1 g/kg oral for 1 week, C57/BL6 mice, IL-2 in culture supernatant (FIGS. 1 to 3)
Procedure: as §1
The collected mouse spleen was homogenized in DMEM medium and the homogenate was centrifuged at 4° C. (1,000 rpm, 5 minutes) To this was added ASK lysis buffer and the mixture was incubated (37° C., 3 minutes) in order to remove erythrocytes, followed by centrifugation (1,000 rpm, 5 minutes). To the spleen cells thus collected was added ConA at a final concentration of 10 μg/ml and cultivated in a microplate. After 15 hours, the culture supernatant was collected for assaying TNF-α, IFN-γ, and IL-2.
as §2

SMILES: CC(=O)c1occc1OC1OC(CO)C(O)C(O)C1O [substance A, 2-acetyl-3-hydroxyfuran 3-O-α-D-glucopyranoside]
- cytokine induction ability, macrophage (TNF-α and IFN-γ): high cytokine induction ability
- cytokine induction ability (TNF-α, IFN-γ and IL-2): considerable cytokine induction ability
